Data as given in US6605730B2, “Intermediates for nematicidal pyrazoles” (priority 1998, dated 2003).

Legend:
Meloidogyne incognita [1] = assay: Meloidogyne test (Test Example 5, infected soil, lettuce); format: in vivo; details: active compound concentration 5 ppm; lettuce root galls
Description: (§1) Test nematode: Meloidogyne incognita
Solvent: 4 parts by weight of acetone
(§2) Emulsifier: 1 part by weight of alkylaryl polyglycol ether
(§3) To produce a suitable preparation of active compound, 1 part by weight of active compound is mixed with the stated amount of solvent and the stated amount of emulsifier is added and the concentrate is diluted with water to the desired concentration.
(§4) The active compound preparation is intimately mixed with soil which is heavily infected with the test nematodes. The treated soil is transferred into pots, lettuce seeds are sown and the pots are kept in the greenhouse.
(§5) After the desired time the lettuce roots are checked for infestation with nematodes (root galls) and the efficacy of the active compound in % is determined. The efficacy is 100% when infestation is avoided completely and 0% when infestation level is just as high as in the control plants in untreated but equally infested soil.

Meloidogyne incognita [2] = assay: Meloidogyne test (Test Example 6, infected soil, lettuce); format: in vivo; details: active compound concentration 20 ppm, lettuce root galls
Description: as §1
Solvent: 31 parts by weight of acetone
as §2, §3, §4, §5

[3] = test system: southern root-knot nematodes; assay: Test on root-knot nematodes (soil pot test, tomato); format: in vivo; details: active ingredient 50 ppm in infested soil; tomato plants; after 4 weeks
Description: Fine granular formulations were prepared by impregnating 99 parts of pumice with 1 part each of active compounds.
Each of the active compounds prepared in the above-described manner was added to soil infested with southern root-knot nematodes so as to give an active ingredient concentration of 50 ppm, and intimately blended therein. This soil was charged into pots having an area of 1/5000 are, and about 20 tomato seeds (of the Kurihara variety) were sown in each pot. Tomato plants were grown in a greenhouse and, after 4 weeks, extracted so as not to injure their roots. Then, the root knot index and the controlling effect for each active compound were determined in the following manner.
0: No knot was formed (perfectly controlled).
1: Knots were formed to a slight degree.
2: Knots were formed to a moderate degree.
3: Knots were formed to a heavy degree.
4: Knots were formed to the heaviest degree (corresponding to no treatment). [formula]
According to the value of the controlling effect, the effectiveness was rated on the following basis.
a: The controlling effect was in the range of 100 to 71%.
b: The controlling effect was in the range of 70 to 50%.
c: The controlling effect was less than 50%.
d: The controlling effect was 0%.

[4] = test system: Nippostrongylus brasiliensis adult worms; assay: Test on Nippostrongylus brasiliensis, Lane, adult (acetylcholine esterase activity of incubation medium); format: in vivo; details: 100 μg/ml
Description: The method was carried out, in accordance with a method described in Parasitol. Res., vol. 73 (1987) 191, Rapson, E. B. et al. N.brasiliensis adult worms are isolated from the small intestine of female Wister rats and in sodium chloride solution ([…]) supplemented with Canesten (2 mg/l) and Sisomycin (20 mg/l). Worms (five male and five female) were incubated, according to the method of Rapson et al, and the incubation medium was adjusted so as to give final concentrations of 100 μg/ml. The resulting incubation medium was for acetylcholine esterase activity, as performed by Rapso et al. using a scale 0-3 where 0=no activity (<50% enzyme inhibition) and 1, 2 and 3 weak, good and full activity (50-75, >75 and 100% enzyme inhibition, respectively).

[5] = test system: Trichinella spiralis larvae; assay: Test on Trichinella spiralis, Owen, larvae; format: in vivo; details: 100 μg/ml; incubated at 19° C. for five days
Description: The method was carried out, in accordance with a method described in Tropenmed. Parasitol., vol. 32 (1981), 31-34, Jenkins, D. C., and Carrington, T. S. T. spiralis larvae were isolated from skeletal muscles and diaphragms of SPF/CFW1 mice and stored in sodium chloride solution ([…]) supplemented with Canested (20 μg/ml). The larvae (20 per estimation) were incubated in 2 ml of a solution with the following composition: Casitone 20; yeast extract 10; glucose 5; potassium dihydrogen phosphate 0.8; dipotassium hydrogen phosphate 0.8 g/l in water (500 ml; pH 7.2) and supplemented with Sisomycin (10 mg/l) and Canesten (1 mg/l).
The test compound (10 mg) was dissolved in dimethylsulfoxide (0.5 ml) and added to the incubation medium containing the larvae to give final concentrations of 100 μg/ml. The mixture was incubated at 19° C. for five days, after which activity was assessed according to Jenkins and Carrington a scale 1-3 where 1=weak activity (fewer live larvae than in the untreated control); 2=good activity (>=50% more dead larvae than in the untreated control) and 3=full activity (all larvae dead).

Compound: CC(C)(C)c1ccc(-c2cc(-c3cccs3)[nH]n2)cc1
- melting point: 61 to 65 °C

Compound: CCCc1c(-c2ccc(Cl)cc2)n[nH]c1-c1cccs1
- melting point: 129 to 132 °C

Compound: C=C(C)C(=O)n1nc(-c2ccc(Cl)cc2)cc1-c1cccs1
- kill (%) (Meloidogyne incognita [1]): 100%

Compound: Fc1cccc(F)c1-c1cc(-c2cccs2)[nH]n1
- kill in % after 14 d (Meloidogyne incognita [2]): 100%

Compound: 1-acetyl-3-(4-chlorophenyl)-5-(2-thienyl)-1H-pyrazole and 1-acetyl-3-(2-thienyl)-5-(4-chlorophenyl)-1H-pyrazole [Compound 58]
- Evaluation (controlling effect from root knot index) [3]: a (The controlling effect was in the range of 100 to 71%.)

Compound: Fc1ccc(-c2cc(-c3cccs3)[nH]n2)cc1 [Compound 6, 3-(4-fluorophenyl)-5-(2-thienyl)-1H-pyrazole]
- Evaluation (controlling effect from root knot index) [3]: a (The controlling effect was in the range of 100 to 71%.)
- Evalution (acetylcholine esterase inhibition, scale 0-3) [4]: 3 (1, 2 and 3 weak, good and full activity (50-75, >75 and 100% enzyme inhibition, respectively))
- Evolution (activity, scale 1-3) [5]: 2 (2=good activity (>=50% more dead larvae than in the untreated control))

Compound: Clc1ccc(-c2cc(-c3cccs3)[nH]n2)cc1 [Compound 7, 3-(4-chlorophenyl)-5-(2-thienyl)-1H-pyrazole]
- melting point: 217 °C
- Evaluation (controlling effect from root knot index) [3]: a (The controlling effect was in the range of 100 to 71%.)

Compound: Ic1ccc(-c2cc(-c3cccs3)[nH]n2)cc1 [Compound 9]
- Evaluation (controlling effect from root knot index) [3]: a (The controlling effect was in the range of 100 to 71%.)
- Evalution (acetylcholine esterase inhibition, scale 0-3) [4]: 3 (1, 2 and 3 weak, good and full activity (50-75, >75 and 100% enzyme inhibition, respectively))

Compound: CCc1ccc(-c2cc(-c3cccs3)[nH]n2)cc1 [Compound 11]
- Evaluation (controlling effect from root knot index) [3]: a (The controlling effect was in the range of 100 to 71%.)

Compound: FC(F)(F)Oc1ccc(-c2cc(-c3cccs3)[nH]n2)cc1 [Compound 26]
- Evaluation (controlling effect from root knot index) [3]: a (The controlling effect was in the range of 100 to 71%.)

Compound: CCc1c(-c2ccc(Cl)cc2)n[nH]c1-c1cccs1 [Compound 46]
- Evalution (acetylcholine esterase inhibition, scale 0-3) [4]: 3 (1, 2 and 3 weak, good and full activity (50-75, >75 and 100% enzyme inhibition, respectively))
- Evolution (activity, scale 1-3) [5]: 2 (2=good activity (>=50% more dead larvae than in the untreated control))

Compound: CSCc1c(-c2ccc(Cl)cc2)n[nH]c1-c1cccs1 [Compound 49, 3-(4-Chlorophenyl)-4-methylmercaptomethyl-5-(2-thienyl)-1H-pyrazole]
- Evalution (acetylcholine esterase inhibition, scale 0-3) [4]: 3 (1, 2 and 3 weak, good and full activity (50-75, >75 and 100% enzyme inhibition, respectively))
- Evolution (activity, scale 1-3) [5]: 2 (2=good activity (>=50% more dead larvae than in the untreated control))

Compound: c1ccc(-c2cc(-c3cccs3)n[nH]2)cc1 [compound 1, 3-(2-Thienyl)-5-phenyl-1H-pyrazole, reference compound]
- Evaluation (controlling effect from root knot index) [3]: c (The controlling effect was less than 50%.)

Compound: COc1ccc(-c2cc(-c3cccs3)n[nH]2)cc1 [compound 2, 3-(2-Thienyl)-5-(4-methoxyphenyl)-1H-pyrazole, reference compound]
- Evaluation (controlling effect from root knot index) [3]: d (The controlling effect was 0%.)
